# Read-outs that look alike come from different tables or passages of the source.
# Experiments:
# [1] = target: T1, human recombinant PPARγ ligand binding domain (LBD) (Homo sapiens, UniProt P37231); assay: biochemical; conditions: for binding to PPARγ LBD: over the concentration range tested (TBB 0.009–90 μM, TBPH 0.12–1,200 μM)
# T1 construct: purchased Invitrogen
# T1 sequence (P37231 238-503 limits assumed): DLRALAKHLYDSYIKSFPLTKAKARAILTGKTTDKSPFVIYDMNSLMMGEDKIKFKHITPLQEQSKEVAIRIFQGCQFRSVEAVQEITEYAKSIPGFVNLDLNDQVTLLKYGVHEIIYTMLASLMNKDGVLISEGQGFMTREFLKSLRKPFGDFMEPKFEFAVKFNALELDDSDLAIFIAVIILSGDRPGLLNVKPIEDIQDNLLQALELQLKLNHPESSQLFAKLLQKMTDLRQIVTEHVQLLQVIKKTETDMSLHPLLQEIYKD
# Experimental: PPARγ ligand binding assay. Human PPARγ binding was quantified using the PolarScreen^TM PPARγ-Competitor Assay Kit (Invitrogen, Carlsbad, CA), according to the manufacturer’s instructions. […] Displacement of the fluorescent ligand, which has high polarization when bound to the PPARγ-LBD and low polarization when not bound, was assessed by measuring loss of fluorescence polarization using a SpectraMax M5 plate reader (Molecular Devices, Sunnyvale, CA). We calculated the IC50 (concentration required to reduce effect by 50%) and dissociation constants to compare the potency of the binding. Dissociation constants were calculated according to the following equation:
# IC50/[PPARγ green] = Kd,ligand/Kd,probe,
# where Kd,probe is the dissociation constant calculated from titration of 1.25 nM Fluormone™ PPARγ green with the PPARγ LBD.
# [2] = design: method as in Patisaul et al. 2013; Roberts et al. 2012; conditions: in vivo and in vitro; ref Patisaul et al. 2013; Roberts et al. 2012; cited from earlier work
# [3] = system: progesterone receptor; design: method as in earlier work; conditions: ref Honkakoski et al. 2004; Kojima et al. 2013; Suzuki et al. 2013; cited from earlier work
# [4] = system: pregnane X receptor; design: method as in earlier work; conditions: ref Honkakoski et al. 2004; Kojima et al. 2013; Suzuki et al. 2013; cited from earlier work
# [5] = system: primary mouse bone marrow cultures; assay: Lipid accumulation (Nile red) in primary bone marrow cultures under osteogenic induction; conditions: 12 days, molar value of FM550 estimated
# [6] = target: human PPARγ1 (Homo sapiens, UniProt P37231); assay: PPRE-luciferase reporter assay in Cos-7 cells transfected with human PPARG1 and RXRA; assay type: cell-based
# Sequence of human PPARγ1 (P19793 whole entry): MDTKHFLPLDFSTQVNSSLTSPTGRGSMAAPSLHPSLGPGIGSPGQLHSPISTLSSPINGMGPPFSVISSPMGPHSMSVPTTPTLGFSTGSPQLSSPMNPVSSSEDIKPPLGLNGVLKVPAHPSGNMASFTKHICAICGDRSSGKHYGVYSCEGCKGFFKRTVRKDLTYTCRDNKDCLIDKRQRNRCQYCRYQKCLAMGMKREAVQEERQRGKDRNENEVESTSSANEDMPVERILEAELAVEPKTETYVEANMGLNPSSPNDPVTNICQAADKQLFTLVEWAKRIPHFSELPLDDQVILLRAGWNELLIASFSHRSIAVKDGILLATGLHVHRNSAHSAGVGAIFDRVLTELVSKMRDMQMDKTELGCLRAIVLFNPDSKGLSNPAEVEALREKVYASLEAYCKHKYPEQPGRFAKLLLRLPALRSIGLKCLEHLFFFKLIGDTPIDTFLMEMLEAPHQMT
# Sequence of human PPARγ1 (P37231 29-505): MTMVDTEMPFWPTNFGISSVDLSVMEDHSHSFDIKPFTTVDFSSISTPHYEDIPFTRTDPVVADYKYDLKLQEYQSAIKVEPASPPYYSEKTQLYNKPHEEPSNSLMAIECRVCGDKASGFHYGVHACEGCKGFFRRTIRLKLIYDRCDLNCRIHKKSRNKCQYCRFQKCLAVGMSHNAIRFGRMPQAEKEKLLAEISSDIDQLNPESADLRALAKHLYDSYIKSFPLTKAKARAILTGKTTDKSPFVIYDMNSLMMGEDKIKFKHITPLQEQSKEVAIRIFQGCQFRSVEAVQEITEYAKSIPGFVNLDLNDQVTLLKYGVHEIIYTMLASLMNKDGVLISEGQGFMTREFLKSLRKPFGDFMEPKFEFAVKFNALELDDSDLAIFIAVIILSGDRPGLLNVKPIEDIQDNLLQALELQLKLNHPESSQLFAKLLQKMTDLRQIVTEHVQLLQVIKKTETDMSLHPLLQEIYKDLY
# Excerpt: Reporter assays. Cos-7 cells were transiently transfected with vectors containing human PPARG1 (provided by V.K. Chatterjee, University of Cambridge, Cambridge, UK) ([Gurnell et al. 2000]) and human RXRA (plasmid 8882; Addgene, Cambridge, MA) ([Tontonoz et al. 1994]), with PPRE x3-TK-luc (plasmid 1015; Addgene) ([Kim et al. 1998]) and CMV-eGFP reporter constructs using Lipofectamine2000 (Invitrogen). Cultures were cotransfected with either pcDNA3 (Invitrogen) or dominant negative human PPARG (PPARγ-DN; provided by V.K. Chatterjee). […] After 24 hr incubation, cells were lysed in Glo Lysis Buffer and mixed with Bright Glo reagent (both from Promega, Madison, WI). […] Luminescence was normalized by GFP (green fluorescent protein) fluorescence in the same well. The normalized luminescence for each well was then divided by the normalized luminescence measured in control DN-PPARγ–transfected wells to determine the fold-change from DN-control.
# [7] = system: estrogen receptor; design: method as in earlier work; conditions: ref Honkakoski et al. 2004; Kojima et al. 2013; Suzuki et al. 2013; cited from earlier work
# [8] = system: Sp7 mRNA in primary mouse bone marrow cultures; assay: Sp7 (Osterix) mRNA expression (qPCR) in primary bone marrow cultures; assay type: cell-based; conditions: 7 days
# [9] = system: primary mouse bone marrow cultures; assay: Mineralization (Alizarin red) in primary bone marrow cultures; conditions: 12 days; FM550 at 5 μg/mL (10 μM)
# [10] = system: BMS2 cells; assay: Necrosis by dead cell protease release (CytoTox-Glo) in BMS2 cultures; conditions: 12 days; as high as 10 μg/mL (20 μM) FM550 or 20 μM TPP
# Experimental: (§1) Cell viability assays. […] Apoptosis and necrosis were assessed by caspase-3 activity (Caspase-Glo® 3/7 Assay; Promega) and dead cell protease release (CytoTox-Glo™ Cytotoxicity Assay; Promega), respectively, according to the manufacturer’s instructions.
# [11] = system: BMS2 cells; conditions: 12 days; as high as 10 μg/mL (20 μM) FM550 or 20 μM TPP
# Experimental: as §1
# [12] = system: constitutive androstane receptor; design: method as in earlier work; conditions: ref Honkakoski et al. 2004; Kojima et al. 2013; Suzuki et al. 2013; cited from earlier work
# [13] = system: Fabp4 mRNA in primary mouse bone marrow cultures; assay: Fabp4 mRNA expression (qPCR) in primary bone marrow cultures; assay type: cell-based; conditions: 7 days
# [14] = system: BMS2 cells; assay: Lipid accumulation (Nile red) in BMS2 cells
# [15] = system: glucocorticoid receptor; design: method as in earlier work; conditions: ref Honkakoski et al. 2004; Kojima et al. 2013; Suzuki et al. 2013; cited from earlier work
# [16] = system: primary mouse bone marrow cultures; assay: Alkaline phosphatase activity in primary bone marrow cultures; conditions: 12 days; FM550 at 5 μg/mL (10 μM)
# [17] = system: perilipin expression in BMS2 cells; assay: Perilipin protein expression (immunoblot) in BMS2 cells; conditions: BMS2, 7 days
# [18] = system: BMS2 cells
# [19] = system: NIH 3T3L1 cells; design: method as in Springer et al. 2012; conditions: ref Springer et al. 2012; cited from earlier work
# [20] = system: PPARγ; design: method as in Springer et al. 2012; conditions: in vitro; ref Springer et al. 2012; cited from earlier work
# [21] = system: PPARα; design: method as in Springer et al. 2012; conditions: in vitro; ref Springer et al. 2012; cited from earlier work
compound,measurement,setting,value
"CCCCC(CC)COC(=O)c1cc(Br)c(Br)c(Br)c1Br (centres unmarked) [TBB, tetrabromobenzoate]",binding to PPARγ LBD,[1],did not demonstrate any binding
"CCCCC(CC)COC(=O)c1c(Br)c(Br)c(Br)c(Br)c1C(=O)OCC(CC)CCCC (centres unmarked) [TBPH, bis-(2-ethylhexyl) tetrabromophthalate]",metabolism into the monoester,[2],minimally metabolized into the monoester
same,binding to PPARγ LBD,[1],did not demonstrate any binding
"O=P(Oc1ccccc1)(Oc1ccccc1)Oc1ccccc1 [TPP, triphenyl phosphate]",progesterone receptor–mediated reporter activity,[3],antagonizing
same,pregnane X receptor–mediated reporter activity,[4],activating
same,concentration inducing lipid accumulation,[5],10 µM
same,EC50,[6],8 µM
same,concentrations significantly inducing PPARγ-driven reporter activity,"[6]; Cos7, 24 hr, molar values of FM550 and ITP estimated",≥ 10 µM
same,maximal PPARγ-driven reporter activity,"[6]; fold-change from DN-control, 24 hr, rosiglitazone at 1 μM",7.5 ± 0.7 fold
same,estrogen receptor–mediated reporter activity,[7],activating
same,Sp7 mRNA expression,[8],significant decrease in mRNA expression of Sp7
same,mineralization,[9],significantly suppressed only alkaline phosphatase activity
same,necrotic protein release,[10],no increase in necrotic protein release
same,caspase-3 activity,[11],no increase in caspase-3 activity
same,constitutive androstane receptor–mediated reporter activity,[12],activating
same,Fabp4 mRNA expression,[13],significantly increased mRNA expression of Fabp4
same,IC50,[1],38 µM
same,Kd,[1],20 µM
same,maximal lipid accumulation,"[14]; 7 days, naive-corrected, rosiglitazone at 1 μM",614 ± 60 RFUs
same,concentrations significantly inducing lipid accumulation,"[14]; BMS2, 7 days, molar values of FM550 and ITP estimated",≥ 5 µM
same,glucocorticoid receptor–mediated reporter activity,[15],antagonizing
same,alkaline phosphatase activity,[16],significantly suppressed
same,perilipin expression,[17],induced the expression of perilipin
same,cellularity (MTT),"[18]; 24 hr, as high as 40 μg/mL (90 μM) FM550, 40 μM TPP, 40 μg/mL (100 μM) ITP",no loss of cellularity
same,cellularity (MTT),"[18]; 7 days, as high as 20 μg/mL (50 μM) FM550, 20 μM TPP, 10 μg/mL (30 μM) ITP",no loss of cellularity
same,cellularity (MTT),"[18]; 12 days, as high as 10 μg/mL (20 μM) FM550 or 20 μM TPP",no loss of cellularity
CCCCC(CC)COC(=O)c1c(Br)c(Br)c(Br)c(Br)c1C(=O)O (centres unmarked) [mono-(2-ethylhexyl) tetrabromophthalate],adipocyte differentiation,[19],induced adipocyte differentiation
same,PPARγ-mediated gene transcription,[20],activated
same,PPARα-mediated gene transcription,[21],activated
